According to EP1085812B1, “POTATO CYST NEMATODE CONTROLLING FACTORS AND THEIR USE IN AGRICULTURE” (priority 1998, dated 1999):
Read-outs that look alike come from different tables or passages of the source.

Legend:
[1] = test system: G. rostochiensis pathotype Ro-1; test: Interaction of glycoalkaloid dilution series with PRL in hatching assay; type: in vivo; conditions: Fig. 9
Text: To investigate these interactions further, the response of PCN hatch to a dilution series of single natural potato-produced HFs (the glycoalkaloids α-solanine and α-chaconine: Devine, K.J. et al. ((1996) supra) was studied in the presence and absence of a PRL preparation, the concentration of the latter being adjusted to that used in Figs. 4 and 5.
Logarithmic dilution series ([…]) of the glycoalkaloids α-chaconine and α-solanine (Sigma Chemical Co. Poole, UK) were each prepared either in water or PRL (1mg ml^-1). Hatching activity was determined in these dilution series, with PRL (1mg ml^-1) and water as controls.
At each glycoalkaloid concentration, the hatching activity of (glycoalkaloid only), (PRL only) and (glycolalkaloid + PRL) preparations was determined. The difference between the observed hatch (in the presence of (glycoalkaloid only), (PRL only) and (glycoalkaloid + PRL) and the expected hatch if the effects of the glycoalkaloid and PRL were additive, (i.e. (glycoalkaloid only)) + (PRL only) was determined at each concentration of glycoalkaloid. The results are depicted in Fig. 9.

PCN = conditions: in aqueous solutions or as a solid; cited from earlier work
[2] = cited from earlier work

Molecule	effect on hatching activity of PRL ([1]; high concentrations of glycoalkaloid, dilution series in PRL (1mg ml^-1))	effect on hatching activity of PRL ([1]; lower concentrations of glycoalkaloid, over a range of four orders of magnitude)	concentration at which active (PCN)	optimum concentration (PCN)	stability ([2]; pH below 2 and above 7)	stability ([2]; temperatures above about 35°C)
C[C@H]1CC[C@@H]2[C@@H](C)[C@H]3[C@H](C[C@H]4[C@@H]5CC=C6C[C@@H](O[C@@H]7O[C@H](CO)[C@H](O)[C@H](O[C@@H]8O[C@H](CO)[C@@H](O)[C@H](O)[C@H]8O)[C@H]7O[C@@H]7O[C@@H](C)[C@H](O)[C@@H](O)[C@H]7O)CC[C@]6(C)[C@H]5CC[C@]34C)N2C1 [α-solanine]	markedly inhibited	interacted synergistically				
trans-2-(2-,13-dihydroxy-9-methoxy-7,7,16-trimethyl-5,10,20-trioxo-19-oxahexacyclo [9.7.0.1^3,6.0^3,8.1^12,16]-eicosa-1(11),8-dien-15-yl) cyclopropropanecarboxylic acid [hatching agent]			0.01 - 1000 mg/kg soil	1 - 100 mg/kg soil	unstable	unstable
